Measurements published in US20180280480A1, “COMPOSITIONS AND PEPTIDES HAVING DUAL GLP-1R AND GLP-2R AGONIST ACTIVITY” (priority 2014, published 2018).

Key:
C57BL/6J mice = experiment: GLP1R-GLP2R dual agonist compound study: oral glucose tolerance test; assay type: in vivo
Procedure: On day 7, an oral glucose tolerance test (OGTT) was performed. Animals were mildly fasted as all food was removed 4 hours prior to the oral glucose load. Vehicle (SC) and compounds were administered subcutaneously (SC) 2 hours prior to the OGTT. At t=0 mice received an oral glucose load (2 g/kg; 4 ml/kg; 500 mg/ml, Fresenius Kabi, Sweden). Glucose was given as gavage via a gastrically-placed tube connected to a syringe ensuring accurate dosing. Blood glucose was measured from tail vein blood before glucose (at t=−120 and 0 min, baseline) and after glucose administration at t=15, 30, 60 and 120 min. Blood samples (tail vein) was collected into 10 μl heparinized glass capillary tubes and immediately suspended in buffer (0.5 ml of glucose/lactate system solution (EKF-diagnostics, Germany) and analyzed for glucose on the test day using a BIOSEN c-Line glucose meter (EKF-diagnostics, Germany) according to manufacturer's instructions. Results from the OGTT are listed below in Table 11.

[1] = system: Diet Induced Obese (DIO) Sprague-Dawley Rats; experiment: Body weight and whole body fat mass in DIO Sprague-Dawley rats; assay type: in vivo; details: for Body weight: mean ± S.E.M.; for Whole body fat mass: EchoMRI
Procedure: Thirty (30) male Sprague-Dawley rats (7 weeks of age) were purchased from Taconic (Denmark) and transferred to the Gubra animal unit. During the acclimatization period, the rats were housed two per cage under a 12:12 light dark cycle (lights on from 04.00-16.00 h) at controlled temperature conditions (22±1° C.; 50±10% relative humidity). Throughout the study the rats had ad libitum access to a two choice diet—regular Altromin 1324 rodent chow (Brogaarden, Denmark) and a paste made from Chocolate spread (Nutella, Ferrero Italy), peanut butter and powdered regular Altromin 1324 rodent chow (Brogaarden, Denmark). The animals were kept on the diet for 65 weeks before experimentation. Animals were switched to single housing during the entire study period (day −6 to 25).
The animals were randomized into three study groups (n=10 per group) based on body weight recorded on day −1 to participate in one of the following groups: Group 1: Vehicle, SC, BID. Group 2: SEQ ID NO 6, 82 nmol/kg (day 2-7), 164 nmol/kg (day 8-14) and 328 nmol/kg (day 15-25), SC, BID. […] Dosing took place in the morning (between 06.00 and 08.00 h) and prior to lights out in the afternoon (between 13.30 and 14.00 h). Doses were administered subcutaneously with a dose volume 1 ml/kg. All rats were handled prior to experimentation to acclimatize the animals to handling and procedures. Body weight was measured from day −3 to termination on day 25. Total body fat mass was analyzed before study start (day −1) and before termination (study day 25) by non-invasive EchoMRI-900 (EchoMRI, USA). On day 23 of the study, rats were subjected to an oral glucose tolerance test (OGTT). Animals were mildly fasted as all food was removed 4 hours prior to the oral glucose load. Vehicle and compounds were administered subcutaneously (SC) 2 hours prior to the OGTT. At t=0 rats received an oral glucose load (2 g/kg; 4 ml/kg; […], Fresenius Kabi, Sweden). Glucose was given as gavage via a gastrically-placed tube connected to a syringe ensuring accurate dosing. Blood glucose was measured from tail vein blood before (t=−120 and 0 min, baseline) and after glucose administration (t=15, 30, 60 and 120 min). Blood samples was collected into 10 μl heparinized glass capillary tubes and immediately suspended in buffer (0.5 ml of glucose/lactate system solution (EKF-diagnostics, Germany) and analyzed for glucose on the test day using a BIOSEN c-Line glucose meter (EKF-diagnostics, Germany) according to manufacturer's instructions. On study day 25, the rats were terminated and the GI tract was removed. Intestines were flushed with saline, weighed and then fixated in 4% PFA for determination of small and large intestinal volume by stereological methods as described by Hansen et al. 2013, Am J Transl Res 5(3): 347-58).

[2] = Day 25, 328 nmol/kg (escalated 82, 164, 328 nmol/kg SC BID)

R^1-HGDGSFTSELSTYLDALAARDFIAWLIQTKITDR^2 [SEQ ID NO 6]
Oral glucose tolerance test AUC, 0-120 min (C57BL/6J mice; Day 7, 3.0 mg/kg BID SC, glucose 2 g/kg oral, mean ± S.E.M.): 523 ± 112 mmol·min/L | blood glucose compared to vehicle and teduglutide (C57BL/6J mice; dosed twice daily for 7 days): significantly reduced fasting blood glucose | Body weight ([1]; Day 0 (baseline), 328 nmol/kg group (escalated 82, 164, 328 nmol/kg SC BID)): 962.7 ± 27.8 g | Whole body fat mass [1, 2]: 292.2 ± 25.4 g | Body weight [1, 2]: 803.9 ± 35.5 g | Whole body fat mass ([1]; Day −1 (baseline), 328 nmol/kg group (escalated 82, 164, 328 nmol/kg SC BID)): 400.3 ± 18.3 g
